In patent US20080306080A1, “NEUTROPHILIA INHIBITOR” (Nissan Chemical Industries, Ltd., priority 2003, published 2008):

Columns and labels:
[1] = test system: airway neutrophilia induced by exposure to tobacco smoke; test: Guinea pig respiratory dysfunction model with airway neutrophilia induced by exposure to tobacco smoke; type: in vivo, Hartley guinea pigs; settings: oral 10 mg/kg before each tobacco smoke exposure, 3 weeks, measured the day after
Experimental: Hartley guinea pigs weighing from 350 to 450 g were exposed to cigarette smoke for an hour per day, five days per week, for 3 weeks, by using a tobacco smoke exposer and an exposure chamber (Flow-pasttype nose-only inhalation chamber, Muenster).
The tobacco smoke exposure was preceded, 15-45 minutes in advance, by oral administration of the compound suspended in 0.5% methylcellulose (MC) at a dose of 10 mg/2 mL/kg or by oral administration of 0.5% MC at a dose of 2 mL/kg to a solvent group. To the non-treatment group, 0.5% MC was orally administered at a dose of 2 mL/kg, 15-45 minutes before air exposure. From 4 to 6 […] were carried out for each group. The airway resistances and neutrophil counts were measured the day after three weeks of the tobacco smoke exposure. The airway resistances were measured by double chamber plethysmography with a respiratory function tester (Puloms-1, M.I.P.S.) during wakefulness. The neutrophil counts were measured in the same manner as in Test Example 1. The effect of Compound A was evaluated by calculating the suppression ratio (%) in accordance with the following formula.
Suppression ratio=((measured value for the control group−measured value for the normal value)−(measured value for the Compound A group−measured value for the normal group))×100/(measured value for the control group−measured value for the normal value)

[2] = test system: neutrophilia in the rat airway; test: Effect on neutrophilia in the rat airway (LPS inhalation, neutrophil count in bronchoalveolar washings); type: in vivo, Wister rats; settings: oral 1 mg/kg, 3 mg/kg and 10 mg/kg, 30 min before LPS inhalation; washings about 5 hours after inhalation
Experimental: Male Wister rats weighing from 100 to 200 g were put in a clear plastic inhalation box for small animals (W30×H30×D30 cm), and 30 mL of a lipopolysaccharide solution (LPS E. coli 0.3 mg/mL saline) atomized to an average particle size of 2.0-6.0 μm was administered by inhalation from an ultrasonic nebulizer (TUR-3200, NIHON KOHDEN) for 30 minutes.
The lipopolisaccharide inhalation was preceded, 30 minutes in advance, by oral administration of Compound A suspended in 0.5% methylcellulose (MC) at doses of 1 mg/4 mL/kg, 3 mg/4 mL/kg and 10 mg/4 mL/kg, or by oral administration of 0.5% MC at a dose of 2 mL/kg to a solvent group. […]
About 5 hours after the lipopolisaccharide inhalation, bronchoalveolar washings were collected. […] The total number of leukocytes in the suspension was counted with a multichannel blood cell counter and designated as the total leukocyte count.
Further, after the cell suspension was adjusted to a total leukocyte count of 1×10^6 cells/mL, 100 μL of the suspension was centrifuged at room temperature at 400 rpm for 4 minutes in a cytocentrifuge (Thermo Shandon) and made into smears. The smears were stained with Diff-Quick (International Reagents Co., Ltd.), and monocytes, eosinophils and neutrophils were counted under an inverted microscope (×400) to about 500 cells. […]

Cl.O=c1[nH]nc(OCCCc2ccc(Cl)cc2)c(NCc2cccnc2)c1Br [Compound A, 4-bromo-6-[3-(4-chlorophenyl)propoxy]-5-(3-pyridylmethylamino)-3(2H)-pyridazinone hydrochloride]
suppression ratio of increase in airway resistance ([1]; double chamber plethysmography): 100%
suppression ratio of neutrophilia (neutrophil count) [1]: 73%
antineutrophilia effect in the rat airways (neutrophil counts in bronchoalveolar washings) [2]: had antineutrophilia effect
